Laboratory results taken from patent publication US8841233B2, “Herbicidal compositions comprising 4-amino-3-chloro-5-fluoro-6-(4-chloro-2-fluoro-3-methoxyphenyl) pyridine-2-carboxylic acid or a derivative thereof and 4-hydroxyphenyl-pyruvate dioxygenase (HPPD) inhibitors” (Dow Agrosciences LLC, priority 2012, dated 2014).

Experiments:
Experiment in all cases: Pre-emergence soil-applied weed control, greenhouse (Example III)
XANST = type: in vivo, Xanthium strumarium L.; conditions: 35 gai/ha
From the text: (§1) Evaluation of Pre-emergence Soil-Applied Herbicidal Mixtures for Weed Control
(§2) Seeds or nutlets of the desired test plant species were planted in a soil matrix prepared by mixing a loam soil (32 percent silt, 23 percent clay, and 45 percent sand, with a pH of about 6.5 and an organic matter content of about 1.9 percent) and calcareous grit in an 80 to 20 ratio. The soil matrix was contained in plastic pots with a volume of 1 quart and a surface area of 83.6 square centimeters (cm^2).
(§3) Treatments consisted of the benzyl ester of 4-amino-3-chloro-5-fluoro-6-(4-chloro-2-fluoro-3-methoxy-phenyl)pyridine-2-carboxylic acid (compound A) formulated as an SC (suspension concentrate) and various herbicidal components alone and in combination. Forms of compound A were applied on an acid equivalent basis.
(§4) Other herbicidal components were applied on an acid equivalent or active ingredient basis and included the 4-hydroxyphenyl pyruvate dioxygenase (HPPD)-inhibiting herbicide, isoxaflutole, formulated as Balance Pro®.
(§5) Treatment requirements were calculated based upon the rates being tested, the concentration of active ingredient or acid equivalent in the formulation, and a 12 mL application volume at a rate of 187 L/ha.
(§6) For treatments comprised of formulated compounds, measured amounts of compounds were placed individually in 25 mL glass vials and diluted in a volume of 1.25% (v/v) Agri-Dex® crop oil concentrate (COC) to obtain 12× stock solutions. […] Application solutions were prepared by adding an appropriate amount of each stock solution (e.g., 1 mL) and diluted to the appropriate final concentrations with the addition of 10 mL of an aqueous mixture of 1.25% (v/v) COC so that the final spray solutions contained 1.25% (v/v) COC.
(§7) All stock solutions and applications solutions were visually inspected for compound compatibility prior to application. Spray solutions were applied to the soil with an overhead Mandel track sprayer equipped with a 8002E nozzles calibrated to deliver 187 L/ha over an application area of 0.503 m^2 at a spray height of 18 inches (46 cm) above average pot height. Control pots were sprayed in the same manner with the solvent blank.
(§8) The treated and control pots were placed in a greenhouse and top watered as needed. When required to ensure good germination and healthy plants, a fungicide treatment and/or other chemical or physical treatment was applied. […] After approximately 4 weeks, the condition of the test plants as compared with that of the untreated plants was determined visually and scored on a scale of 0 to 100 percent where 0 corresponds to no injury or growth inhibition and 100 corresponds to complete kill. […]

SETVI = type: in vivo, Setaria viridis (L.) Beauv.
From the text: as §1, §2, §3, §4, §5, §6, §7, §8

IPOHE = type: in vivo, Ipomoea hederacea (L.) Jacq.; conditions: 35 gai/ha
From the text: as §1, §2, §3, §4, §5, §6, §7, §8

Compound: CS(=O)(=O)c1cc(C(F)(F)F)ccc1C(=O)c1cnoc1C1CC1 [Isoxaflutole, (5-cyclopropyl-4-isoxazolyl)[2-(methylsulfonyl)-4-(trifluoromethyl)phenyl]methanone, reference compound]
- Visual Weed Control (%) - 32 DAA XANST Obs (XANST): 75%
- Visual Weed Control (%) - 32 DAA SETVI Obs (SETVI; 35 gai/ha): 50%
- Visual Weed Control (%) - 32 DAA SETVI Obs (SETVI; 70 gai/ha): 93%
- Visual Weed Control (%) - 32 DAA IPOHE Obs (IPOHE): 43%
